Laboratory results taken from patent US10328087B2, “Formulations for solubilizing hormones” (TherapeuticsMD, Inc., priority 2015, dated 2019).
Marks after values point to notes of the source that are not given here.

Tests used:
[1] = test system: ovariectomized female Crl:CD rats; test: Transdermal progesterone opposing estradiol effects on uterus and vagina in ovariectomized rats; assay type: in vivo, rat; conditions: for Endometrial Gland Density, LSMean / Endometrial Gland Size, LSMean / Endometrial Height, LSMean / Luminal Epithelial Cell Height, LSMean / Number of Mitotic Figures, LSMean: Day 8, EST 3 μg/kg SC alone, or with 10 mg/kg SC Prog, or with 3.125 mg/kg Dermal Prog
Experimental: Transdermally delivered progesterone blocked growth-related estrogenic effects on the endometrium and vagina in ovariectomized rats.
Thirty-two 8-week-old female Crl:CD® rats underwent ovariectomy 2 weeks prior to the start of the study. Rats were then randomly assigned to 4 groups of 8 rats each and dosed according to the schedule in Table 4. Control animals were dosed with saline or vehicle as noted. Two hours after the final dose on Day 8, the rats were humanely euthanized and the rats' vaginas and the distal portions of the rats' uterine horns were fixed and processed for histology and computer-aided morphometry.

[2] = Solubility of progesterone in solvent (concentration for clear solution); assay type: physicochemical
Text: Without wishing to be bound by any particular theory, it is believed that the compositions and methods described herein address the problems associated with known steroid hormone formulations such as poor solubility, poor bioavailability, and poor stability. More specifically, it has now been discovered that terpenes are unexpectedly effective in enhancing the solubility of insoluble steroid hormones such as progesterone and likewise act as excellent penetration enhancers for these same compounds. […] The compositions can also have any combination of enhanced dissolution rates, penetration capabilities, absorption, and bioavailability.

[3] = estradiol-treated ovariectomized rats, progesterone SC or transdermally

Compound	Endometrial Gland Density, LSMean ([1]; ovariectomized rats)	Endometrial Gland Size, LSMean ([1]; ovariectomized rats)	Endometrial Height, LSMean ([1]; ovariectomized rats)	Luminal Epithelial Cell Height, LSMean ([1]; ovariectomized rats)	Number of Mitotic Figures, LSMean ([1]; ovariectomized rats)	effect on the uterus (organ weight measurements and histology) ([1]; unopposed estradiol treatment, ovariectomized rats)	Concentration of Progesterone (mg/g) for clear solution ([2]; solvent Absolute Ethanol) [mg/g]	Concentration of Progesterone (mg/g) for clear solution ([2]; solvent d-Limonene) [mg/g]	uterine weight ([1]; estradiol-treated ovariectomized rats receiving progesterone SC or transdermally, FIGS. 5 and 6)	endometrial gland density compared to unopposed estradiol [1, 3]	luminal epithelial cell height compared to unopposed estradiol [1, 3]	estrogen-specific cellular aspects in the uterus and vagina ([1]; histology, estradiol-treated ovariectomized rats receiving progesterone SC or transdermally)
C[C@]12CC[C@@H]3c4ccc(O)cc4CC[C@H]3[C@@H]1CC[C@@H]2O [EST, (17β)-estra-1,3,5(10)-triene-3,17-diol]	7.09^b cells/mm^2	4540^b μm^2	418^b μm	47.8^b μm	921^b	hypertrophy	–	–	–	–	–	–
CC(=O)[C@H]1CC[C@H]2[C@@H]3CCC4=CC(=O)CC[C@]4(C)[C@H]3CC[C@]12C [Progesterone, pregn-4-ene-3,20-dione]	10.3^b,d cells/mm^2	4390^b μm^2	436^b μm	31.91^b,d μm	595^b,d	–	57	204.0	Significantly reduced	significant increase	significant reduction	not detected
